According to ChEMBL document CHEMBL1201862, “PubChem BioAssay data set” (2004):
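Cultured in 96-well plates, cells were exposed to test compound for 48 hours across five concentrations. GI50 = concentration required for 50% inhibition of growth.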 The source made the active and inactive calls. No stated cut-off is given here; in the data, active = GI50 up to about 1.1 µM and inactive = higher.

Key:
Assay in all cases: DTP human tumour cell line panel, 48 h
[1] = test system: HOP-62
[2] = test system: RPMI-8226
[3] = test system: RXF 393
[4] = test system: K562
[5] = test system: OVCAR-4
[6] = test system: HL-60
[7] = test system: SF-539
[8] = test system: MOLT-4
[9] = test system: KM12
[10] = test system: NCI-H226
[11] = test system: ACHN
[12] = test system: TK-10
[13] = test system: UACC-257
[14] = test system: SK-MEL-2
[15] = test system: NCI-H460
[16] = test system: HT-29
[17] = test system: NCI-H23
[18] = test system: LOX IMVI

Measured: GI50

CC12OC3(O)C4C5CC(C6C5C3C61)C42 (configuration not stated)
inactive: [1] > 100 µM | [2] > 100 µM | [3] > 100 µM | [4] > 100 µM | [5] > 100 µM | [6] > 100 µM | [7] > 100 µM | [8] > 100 µM | [9] > 100 µM | [10] > 100 µM | [11] > 100 µM | [12] > 100 µM | [13] > 100 µM | [14] > 100 µM

Cn1cnc2nc(Cl)nc(NC(C)(C)C(C)(C)O)c21
inactive: [1] > 100 µM | [15] > 100 µM | [16] > 100 µM | [2] > 100 µM | [3] > 100 µM | [4] > 100 µM | [5] > 100 µM | [6] > 100 µM | [7] > 100 µM | [17] > 100 µM | [8] > 100 µM | [9] > 100 µM | [10] > 100 µM | [11] > 100 µM | [12] > 100 µM | [13] > 100 µM | [14] > 100 µM

O=C(NCCO)c1ccc([N+](=O)[O-])cc1
inactive: [1] > 100 µM | [15] > 100 µM | [16] > 100 µM | [2] > 100 µM | [3] > 100 µM | [4] > 100 µM | [6] > 100 µM | [7] > 100 µM | [17] > 100 µM | [8] > 100 µM | [9] > 100 µM | [18] > 100 µM | [10] > 100 µM | [12] > 100 µM | [13] > 100 µM | [14] > 100 µM

C/C(CC(=O)Nc1ccc([N+](=O)[O-])cc1)=N\Nc1ccc([N+](=O)[O-])cc1[N+](=O)[O-]
inactive: [1] 50.1 µM | [15] 44.4 µM | [16] > 100 µM | [2] 56.4 µM | [3] > 100 µM | [4] 20.2 µM | [6] 31.9 µM | [7] 41 µM | [17] > 100 µM | [8] 13.1 µM | [9] 29.3 µM | [18] 10.7 µM | [10] 52.7 µM | [11] 10.8 µM | [12] > 100 µM | [13] 47.1 µM | [14] > 100 µM

C[C@@H](NC1CCC[C@H]1O)c1ccccc1 (some centres not stated)
inactive: [1] > 100 µM | [15] > 100 µM | [16] > 100 µM | [2] > 100 µM | [3] > 100 µM | [4] > 100 µM | [5] > 100 µM | [6] > 100 µM | [8] > 100 µM | [9] > 100 µM | [18] > 100 µM | [10] > 100 µM | [11] > 100 µM | [12] > 100 µM | [13] > 100 µM | [14] > 100 µM

COc1ccc(O)cc1C(O)c1ccccc1 (configuration not stated)
inactive: [1] > 100 µM | [15] > 100 µM | [16] > 100 µM | [3] > 100 µM | [4] > 100 µM | [5] > 100 µM | [6] > 100 µM | [7] > 100 µM | [17] > 100 µM | [8] > 100 µM | [9] > 100 µM | [18] > 100 µM | [10] > 100 µM | [11] > 100 µM | [12] > 100 µM | [13] > 100 µM | [14] > 100 µM

COc1ccc(C2=Nc3ccccc3N=C(SC)C2)cc1
inactive: [1] > 100 µM | [15] 24.5 µM | [16] 38.5 µM | [3] 62.5 µM | [4] 20.8 µM | [5] 48.5 µM | [6] 16.3 µM | [7] > 100 µM | [17] 32.8 µM | [8] 25.5 µM | [9] 27.5 µM | [18] 16.9 µM | [10] > 100 µM | [11] 69.8 µM | [12] 40.7 µM | [13] 22.1 µM | [14] 21.8 µM

O=C1Nc2ccccc2N/C1=C\C(=O)c1ccccc1O
inactive: [1] > 100 µM | [15] > 100 µM | [16] > 100 µM | [2] > 100 µM | [3] > 100 µM | [4] > 100 µM | [5] > 100 µM | [6] > 100 µM | [17] > 100 µM | [8] > 100 µM | [9] > 100 µM | [18] > 100 µM | [10] > 100 µM | [11] > 100 µM | [12] > 100 µM | [13] > 100 µM | [14] > 100 µM

CC(=O)C1C(c2ccccc2)C2(C)OC(=O)C(C#N)C12C (configuration not stated)
inactive: [15] > 100 µM | [2] > 100 µM | [3] > 100 µM | [4] > 100 µM | [5] > 100 µM | [6] > 100 µM | [7] > 100 µM | [17] > 100 µM | [8] > 100 µM | [9] > 100 µM | [18] > 100 µM | [10] > 100 µM | [11] > 100 µM | [12] > 100 µM | [14] > 100 µM

C=CCC1=C(C)C[C@@H]2CCC(=O)C=C12
inactive: [1] > 100 µM | [15] > 100 µM | [16] > 100 µM | [2] > 100 µM | [3] > 100 µM | [4] > 100 µM | [5] > 100 µM | [6] > 100 µM | [7] > 100 µM | [17] > 100 µM | [8] > 100 µM | [9] > 100 µM | [18] > 100 µM | [11] > 100 µM | [12] > 100 µM | [13] > 100 µM | [14] > 100 µM

CC(C)=CC1C[C@H](C2CC=C3C2(C)CCC2[C@@]3(C)C(=O)CC3[C@]2(C)C=CC(=O)[C@]3(C)CO)CO1 (some centres not stated)
inactive: [1] 12.7 µM | [15] 11.6 µM | [16] 4.15 µM | [2] 3.15 µM | [3] 10.4 µM | [4] 4.34 µM | [5] 10.7 µM | [6] 2.92 µM | [7] 4.57 µM | [17] 5.42 µM | [8] 2.7 µM | [9] 5.92 µM | [18] 3.76 µM | [11] 13.2 µM | [12] 25.8 µM | [13] 13.9 µM | [14] 5.45 µM

C[C@]12CCC(=O)C(O)=C1CC[C@@H]1C2CC[C@]2(C)Nc3c(cnn3-c3ccccc3)CC12 (some centres not stated)
inactive: [1] > 100 µM | [15] 48.8 µM | [16] 39.4 µM | [2] 27.4 µM | [3] 55.1 µM | [4] 40.6 µM | [5] 96.2 µM | [6] 23.8 µM | [7] 67.6 µM | [17] 54.5 µM | [8] 32.6 µM | [9] 31.7 µM | [10] 64.3 µM | [11] > 100 µM | [12] > 100 µM | [13] 39 µM | [14] > 100 µM
